Data published in publication PMC12210654, “Palazestrant, a novel oral Complete Estrogen Receptor Antagonist (CERAN) and Selective Estrogen Receptor Degrader (SERD), in patients with ER+/HER2− advanced or metastatic breast cancer: phase 1/2 study results” (Breast Cancer Research : BCR, 2025).

Assay: Safety: adverse events (NCI CTCAE v5.0), electrocardiograms
Assay type: in vivo, human
Conditions: for TEAE Neutropenia, Any grade / TEAE Neutropenia, Grade 3 / TEAE Neutropenia, Grade 4 / TRAE Neutropenia, Any grade / TRAE Neutropenia, Grade 3 / TRAE Neutropenia, Grade 4: includes neutropenia, neutrophil count decreased, febrile neutropenia
Protocol: Safety assessments included the monitoring of AEs, clinical laboratory parameters, electrocardiograms, and vital signs. AE severity was graded according to the National Cancer Institute Common Terminology Criteria for Adverse Events (version 5.0).
All DLT analyses (phase 1a) were performed in patients enrolled in the study during cycle 1 and who either received 75% of the planned palazestrant doses or experienced a DLT during cycle 1. All PK analyses were performed in patients who received at least 1 dose of palazestrant and had adequate postbaseline PK samples for characterization of PK parameters. All safety analyses were performed and PFS assessed in patients who received at least 1 dose of palazestrant. Clinical response (CR or PR) was assessed in patients who received at least 1 cycle of palazestrant, had measurable disease at baseline, and had at least 1 postbaseline tumor assessment. CBR was assessed in patients who received at least 1 cycle of palazestrant, had at least 1 postbaseline tumor assessment, and started their first dose at least 24 weeks before data cutoff. Patients who discontinued study treatment without radiographic progression within 24 weeks from the first dose were not included in the CBR analysis. PK parameters were estimated using conventional noncompartmental methods. For CBR, estimates were accompanied by 2-sided 95% confidence intervals (95% CIs). For PFS, Kaplan–Meier analyses were used to determine medians, event-free rates, and 95% CIs. For all other outcomes, categorical data were analyzed using frequencies and percentages, and continuous data were analyzed using means (standard deviation) or medians (range), as appropriate.

CCCN1CC(Oc2ccc([C@@H]3c4[nH]c5ccccc5c4C[C@@H](C)N3CC(C)(C)F)cc2)C1 [palazestrant, Palazestrant]
TEAE Constipation, Any grade (60 mg (n = 30)): 6 (20.0) n (%)
TEAE Constipation, Grade 3 (60 mg (n = 30)): 0 n (%)
TEAE Constipation, Grade 4 (60 mg (n = 30)): 0 n (%)
TEAE Diarrhea, Any grade (60 mg (n = 30)): 6 (20.0) n (%)
TEAE Diarrhea, Grade 3 (60 mg (n = 30)): 1 (3.3) n (%)
TEAE Diarrhea, Grade 4 (60 mg (n = 30)): 0 n (%)
TEAE Fatigue, Any grade (60 mg (n = 30)): 13 (43.3) n (%)
TEAE Fatigue, Grade 3 (60 mg (n = 30)): 0 n (%)
TEAE Fatigue, Grade 4 (60 mg (n = 30)): 0 n (%)
TEAE Headache, Any grade (60 mg (n = 30)): 7 (23.3) n (%)
TEAE Headache, Grade 3 (60 mg (n = 30)): 0 n (%)
TEAE Headache, Grade 4 (60 mg (n = 30)): 0 n (%)
TEAE Nausea, Any grade (60 mg (n = 30)): 14 (46.7) n (%)
TEAE Nausea, Grade 3 (60 mg (n = 30)): 0 n (%)
TEAE Nausea, Grade 4 (60 mg (n = 30)): 0 n (%)
TEAE Vomiting, Any grade (60 mg (n = 30)): 5 (16.7) n (%)
TEAE Vomiting, Grade 3 (60 mg (n = 30)): 0 n (%)
TEAE Vomiting, Grade 4 (60 mg (n = 30)): 0 n (%)
TRAE Fatigue, Any grade (60 mg (n = 30)): 9 (30.0) n (%)
TRAE Fatigue, Grade 3 (60 mg (n = 30)): 0 n (%)
TRAE Fatigue, Grade 4 (60 mg (n = 30)): 0 n (%)
TRAE Headache, Any grade (60 mg (n = 30)): 3 (10.0) n (%)
TRAE Headache, Grade 3 (60 mg (n = 30)): 0 n (%)
TRAE Headache, Grade 4 (60 mg (n = 30)): 0 n (%)
TRAE Nausea, Any grade (60 mg (n = 30)): 10 (33.3) n (%)
TRAE Nausea, Grade 3 (60 mg (n = 30)): 0 n (%)
TRAE Nausea, Grade 4 (60 mg (n = 30)): 0 n (%)
TRAE Vomiting, Any grade (60 mg (n = 30)): 3 (10.0) n (%)
TRAE Vomiting, Grade 3 (60 mg (n = 30)): 0 n (%)
TRAE Vomiting, Grade 4 (60 mg (n = 30)): 0 n (%)
TEAE Neutropenia, Any grade (60 mg (n = 30)): 2 (6.7) n (%)
TEAE Neutropenia, Grade 3 (60 mg (n = 30)): 0 n (%)
TEAE Neutropenia, Grade 4 (60 mg (n = 30)): 0 n (%)
TRAE Neutropenia, Any grade (60 mg (n = 30)): 0 n (%)
TRAE Neutropenia, Grade 3 (60 mg (n = 30)): 0 n (%)
TRAE Neutropenia, Grade 4 (60 mg (n = 30)): 0 n (%)
TEAE Constipation, Any grade (120 mg (n = 86)): 15 (17.4) n (%)
TEAE Constipation, Grade 3 (120 mg (n = 86)): 0 n (%)
TEAE Constipation, Grade 4 (120 mg (n = 86)): 0 n (%)
TEAE Diarrhea, Any grade (120 mg (n = 86)): 12 (14.0) n (%)
TEAE Diarrhea, Grade 3 (120 mg (n = 86)): 0 n (%)
TEAE Diarrhea, Grade 4 (120 mg (n = 86)): 0 n (%)
TEAE Fatigue, Any grade (120 mg (n = 86)): 22 (25.6) n (%)
TEAE Fatigue, Grade 3 (120 mg (n = 86)): 3 (3.5) n (%)
TEAE Fatigue, Grade 4 (120 mg (n = 86)): 0 n (%)
TEAE Headache, Any grade (120 mg (n = 86)): 17 (19.8) n (%)
TEAE Headache, Grade 3 (120 mg (n = 86)): 0 n (%)
TEAE Headache, Grade 4 (120 mg (n = 86)): 0 n (%)
TEAE Nausea, Any grade (120 mg (n = 86)): 54 (62.8) n (%)
TEAE Nausea, Grade 3 (120 mg (n = 86)): 3 (3.5) n (%)
TEAE Nausea, Grade 4 (120 mg (n = 86)): 0 n (%)
TEAE Vomiting, Any grade (120 mg (n = 86)): 25 (29.1) n (%)
TEAE Vomiting, Grade 3 (120 mg (n = 86)): 4 (4.7) n (%)
TEAE Vomiting, Grade 4 (120 mg (n = 86)): 0 n (%)
TRAE Fatigue, Any grade (120 mg (n = 86)): 17 (19.8) n (%)
TRAE Fatigue, Grade 3 (120 mg (n = 86)): 2 (2.3) n (%)
TRAE Fatigue, Grade 4 (120 mg (n = 86)): 0 n (%)
TRAE Headache, Any grade (120 mg (n = 86)): 13 (15.1) n (%)
TRAE Headache, Grade 3 (120 mg (n = 86)): 0 n (%)
TRAE Headache, Grade 4 (120 mg (n = 86)): 0 n (%)
TRAE Nausea, Any grade (120 mg (n = 86)): 47 (54.7) n (%)
TRAE Nausea, Grade 3 (120 mg (n = 86)): 3 (3.5) n (%)
TRAE Nausea, Grade 4 (120 mg (n = 86)): 0 n (%)
TRAE Vomiting, Any grade (120 mg (n = 86)): 21 (24.4) n (%)
TRAE Vomiting, Grade 3 (120 mg (n = 86)): 2 (2.3) n (%)
TRAE Vomiting, Grade 4 (120 mg (n = 86)): 0 n (%)
TEAE Neutropenia, Any grade (120 mg (n = 86)): 21 (24.4) n (%)
TEAE Neutropenia, Grade 3 (120 mg (n = 86)): 3 (3.5) n (%)
TEAE Neutropenia, Grade 4 (120 mg (n = 86)): 6 (7.0) n (%)
TRAE Neutropenia, Any grade (120 mg (n = 86)): 18 (20.9) n (%)
TRAE Neutropenia, Grade 3 (120 mg (n = 86)): 3 (3.5) n (%)
TRAE Neutropenia, Grade 4 (120 mg (n = 86)): 5 (5.8) n (%)
grade 4 neutropenia resolved with dose interruption followed by dose reduction, treatment continued with no further neutropenia (120 mg/day): 3 patients
Grade 3 TEAE fatigue (120 mg/day (n = 86)): 3.5%
Grade 3 TEAE nausea (120 mg/day (n = 86)): 3.5%
Grade 3 TEAE neutropenia (120 mg/day (n = 86)): 3.5%
Grade 3 TEAE vomiting (120 mg/day (n = 86)): 4.7%
TEAE fatigue, any grade (120 mg/day (n = 86)): 25.6%
TEAE nausea, any grade (120 mg/day (n = 86)): 62.8%
TEAE vomiting, any grade (120 mg/day (n = 86)): 29.1%
TRAE fatigue, any grade (120 mg/day (n = 86)): 19.8%
TRAE headache, any grade (120 mg/day (n = 86)): 15.1%
